Tests used:
Human OX2 receptor [1] = molecular target: T1, Human OX2 receptor (Homo sapiens (Human), UniProt O43614); experiment: [3H]-radioligand binding assay, OX2; conditions: competition binding, membranes of SF21 cells, Ki by Cheng-Prusoff
From the text: (§1) Cloning, Baculovirus generation, large-scale infection of SF21 cells and membrane preparation. Human OX1 or OX2 receptor were cloned into Invitrogen's (ThermoFisher Scientific, UK) Bac-to-Bac Baculovirus Expression System. P0 baculovirus was generated by transfecting SF9 cells with bacmid DNA using Cellfectin® II transfection reagent (ThermoFisher Scientific, UK, Catalog number 10362-100). Following P0 generation P1 virus was then generated ready for large scale infection and membrane preparation. SF21 cells were grown in expression medium ESF921 (Expression Systems, USA, catalog number 96-001-01) supplemented with 10% heat-inactivated FBS and 1% Pen/Strep and were infected at a cell density of 2.5×10^6 cells/mL and a multiplicity of infection of 1.0 for both human OX1R and OX2R. Incubation was carried out at over 48 h in a shaking incubator set at 27° C. The cell culture was then centrifuged at 2,500 rcf for 10 min at 4° C. The pellets were resuspended in cold PBS supplemented with Roche's Complete EDTA-free protease inhibitor cocktail tablets (Roche Applied Sciences, catalog number 05056489001), 1 mM PMSF and 1 mM EDTA. The resuspended cell paste was then centrifuged at 3,273 rcf for 12 min at 4° C. The supernatant was discarded and the pellet frozen at −80° C. The cell pellet from a 4 L culture was resuspended in buffer containing 50 mM HEPES pH 7.5, 150 mM NaCl, 8 Roche EDTA-Free protease inhibitor cocktail tablets and 1 mM PMSF. The suspension was left stirring at rt for 1 h and then homogenised for 90 s at 9,500 rpm using a VDI 25 (VWR, USA) homogeniser. The cells were then lysed using a Microfluidiser processor M-110L Pneumatic (Microfluidics, USA) at 60 PSI and membranes collected by ultracentrifugation at 204.7 k×g for 1 h. The supernatant was discarded and the pellet was resuspended and homogenised in 90 s at 9,500 rpm in 50 mL (25 mL for each 2 L culture) of buffer containing 50 mM Hepes pH 7.5, 150 mM NaCl, 3 Roche EDTA-free protease inhibitor cocktail tablets and 1 mM PMSF. The resulting membranes were then stored at −80° C.
(§2) [^3H]-radioligand binding assay. After thawing, membrane homogenates were resuspended in the binding buffer (8.5 mM HEPES, pH 7.4, 1.3 mM CaCl2, 1.2 mM MgSO4, 118 mM NaCl, 4.7 mM KCl, 4 mM NaHCO3, 1.2 mM KH2PO4, 11 mM glucose) to a final assay concentration of 6.4 μg (OX1) or 1.4 μg (OX2) protein per well. Saturation isotherms were determined by the addition of various concentrations (0-30 nM) of [^3H]-4-(2,6-difluoro-4-methoxybenzyl)-2-(5,6-dimethoxypyridin-3-yl)-2H-1,2,4-benzothiadiazin-3(4H)-one 1,1-dioxide (Christopher et al, MedChemComm., 2015, 6, 947-955) in a total reaction volume of 250 μL for 90 min at rt. At the end of the incubation, membranes were filtered onto a 96-well GF/B filter pre-incubated with 0.5% polyethylenimine, with a Tomtec cell harvester and washed 5 times with 0.5 mL distilled water. Non-specific binding (NSB) was measured in the presence of 3.33 μM [4-(5-chloro-1,3-benzoxazol-2-yl)-7-methyl-1,4-diazepan-1-yl][5-methyl-2-(2H-1,2,3-triazol-2-yl)phenyl]methanone (Wertz et al, Angew. Chem. Int. Ed., 2011, 50, 11511-11515). Radioactivity on the filter was counted (1 min) on a Microbeta radiometric plate counter (Perkin Elmer) after addition of 50 μL of scintillation fluid (LabLogic: Part #SG-BXX-14). […] IC50 values were derived from the inhibition curve and the equilibrium dissociation constant (Ki) values were calculated using the Cheng-Prusoff equation.

Human OX1 receptor [2] = molecular target: T2, Human OX1 receptor (Homo sapiens (Human), UniProt O43613); experiment: [3H]-radioligand binding assay, OX1; conditions: competition binding, membranes of SF21 cells, Ki by Cheng-Prusoff
From the text: as §1, §2

Human OX1 receptor [3] = molecular target: T2, Human OX1 receptor; experiment: IPone accumulation assay, CHO cells expressing OX1; format: cell-based; conditions: antagonism of orexin A (EC80 ~20 nM)-induced inositol phosphate turnover, read-out: fpKb average OX1 (converted)
Protocol: Generation of CHO stable cell lines expressing the human OX1R and OX2R. Stable cell lines for the human OX1R and OX2R receptors were generated through the transfection of CHO cells using the transfection reagent Genejuice (Novagen number 70967) and cDNA coding for either the human OX1R or OX2R. Cells were cultured in Sigma Nutrient Mixture F-12 Ham media (catalog number N6658) supplemented with 10% heat-inactivated FBS. Forty-eight hours after transfection, cells were harvested and placed under geneticin selection by culturing in Sigma Nutrient Mixture F-12 Ham media supplemented with 10% heat-inactivated FBS and geneticin (ThermoFisher Catalog number: 10131035). Selection of the final stable clone for each receptor was made on the basis of receptor expression, assay signal to noise and robustness though increasing passage. Selected clones for the human OX1R and OX2R were then frozen down into liquid nitrogen using Cell Freezing Medium-DMSO (Sigma-Aldrich catalog number: C6164).
(§3) IPone accumulation assay. A CHO cell line stably expressing either human OX1 or OX2 receptor was used with the IPone HTRF assay kit (CisBio: Part #62IPAPEJ) to measure receptor activation. The assay was optimised to measure the ability (potency; fpKb) of antagonists to reduce agonist (orexin A)-induced inositol phosphate turnover. Briefly, cells were plated onto half area 96-well white walled plates at a density of 12,500 cells/well. Sixteen hours post-plating cell growth media was replaced with antagonist concentration-response curve diluted in stimulation buffer (supplied with the kit). Cells were incubated in a humidified incubator (37° C.) for 30 min before an EC80 challenge concentration (˜20 nM (OX1) and 40 nM (OX2)) of orexin A (Tocris catalogue number 1455). After 30 min stimulation in a humidified incubator (37° C.) the assay was terminated by the addition of detection mixture as per manufacturer's instructions. The concentration of compound which reduced orexin-A stimulated turnover of inositol phosphates by 50% (IC50) was calculated by fitting to a four parameter sigmoidal dose response curve. The IC50 values were converted to fpKB values using the orexin A pEC50 value estimated on each plate as well as the challenge concentration interpolated from the orexin A control curve.

Human OX2 receptor [4] = molecular target: T1, Human OX2 receptor; experiment: IPone accumulation assay, CHO cells expressing OX2; format: cell-based; conditions: antagonism of orexin A (EC80 40 nM)-induced inositol phosphate turnover, read-out: fpKb average OX2 (converted)
Protocol: as §3, with “Generation of CHO stable cell lines expressing the human OX1R and OX2R. Stable cell lines for the human OX1R and OX2R receptors were generated through the transfection of CHO cells using the transfection reagent Genejuice (Novagen number 70967) and cDNA coding for either the human OX1R or OX2R. Cells were cultured in Sigma Nutrient Mixture F-12 Ham media (catalog number N6658) supplemented with 10% heat-inactivated FBS. Forty-eight hours after transfection, cells were harvested and placed under geneticin selection by culturing in Sigma Nutrient Mixture F-12 Ham media supplemented with 10% heat-inactivated FBS and geneticin (ThermoFisher Catalog number: 10131035). Selection of the final stable clone for each receptor was made on the basis of receptor expression, assay signal to noise and robustness though increasing passage. Selected clones for the human OX1R and OX2R were then frozen down into liquid nitrogen using Cell Freezing Medium-DMSO (Sigma-Aldrich catalog number: C6164). IPone accumulation” for “IPone accumulation”, “(CisBio: Part #62[…]) to measure” for “(CisBio: Part #62IPAPEJ) to measure”, “challenge concentration ( 20 nM (OX1)” for “challenge concentration (˜20 nM (OX1)”

rats [5] = conditions: sodium lactate infusion and CO2 challenge models; cited from earlier work
rats [6] = conditions: cited from earlier work
rats [7] = conditions: intraperitoneal administration; cited from earlier work
rats [8] = conditions: cited from earlier work; remark: listed apart in the source

T1 sequence (O43614 whole entry): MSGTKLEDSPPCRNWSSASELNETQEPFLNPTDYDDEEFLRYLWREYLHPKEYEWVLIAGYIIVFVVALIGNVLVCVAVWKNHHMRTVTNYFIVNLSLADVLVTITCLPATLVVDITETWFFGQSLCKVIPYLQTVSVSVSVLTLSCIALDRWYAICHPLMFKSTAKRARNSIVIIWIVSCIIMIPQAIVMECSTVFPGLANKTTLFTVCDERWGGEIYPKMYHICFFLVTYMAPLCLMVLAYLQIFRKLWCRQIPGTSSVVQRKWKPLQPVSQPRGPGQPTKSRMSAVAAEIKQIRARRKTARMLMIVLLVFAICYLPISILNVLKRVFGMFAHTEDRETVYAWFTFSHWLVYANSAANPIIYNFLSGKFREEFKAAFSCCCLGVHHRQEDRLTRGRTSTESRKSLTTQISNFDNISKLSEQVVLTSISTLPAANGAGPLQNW
T2 sequence (O43613 whole entry): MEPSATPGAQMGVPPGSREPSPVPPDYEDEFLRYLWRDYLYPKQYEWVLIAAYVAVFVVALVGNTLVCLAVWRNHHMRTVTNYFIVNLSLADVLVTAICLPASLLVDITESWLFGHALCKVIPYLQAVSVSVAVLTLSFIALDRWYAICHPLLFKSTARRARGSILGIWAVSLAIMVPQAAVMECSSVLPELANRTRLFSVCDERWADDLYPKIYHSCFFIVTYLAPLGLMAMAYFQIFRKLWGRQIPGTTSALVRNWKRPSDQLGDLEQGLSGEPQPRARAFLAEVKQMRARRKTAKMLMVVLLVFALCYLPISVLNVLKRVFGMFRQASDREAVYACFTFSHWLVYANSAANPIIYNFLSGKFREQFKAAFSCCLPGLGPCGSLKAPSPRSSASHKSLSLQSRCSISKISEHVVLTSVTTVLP

SMILES | pKi average OX2 (Human OX2 receptor [1]) | pKi average OX1 (Human OX1 receptor [2]) | Kb (Human OX1 receptor [3]) [nM] | Kb (Human OX2 receptor [4]) [nM] | panic-like behaviours and cardiovascular responses (rats [5]) | alcohol self-administration (rats [6]) | opiate withdrawal symptoms (rats [7]) | nicotine self-administration (rats [8])
Nc1ccc(-c2ncc(F)cn2)c(C(=O)N[C@H]2CCC[C@@H]2COc2ccc(F)cc2)n1 [Example 22, 6-amino-N-[(1S,2S)-2-[(4-fluorophenoxy)methyl]cyclopentyl]-3-(5-fluoropyrimidin-2-yl)pyridine-2-carboxamide] | 6.3 | 8.5 | 7.94 | > 1000 | – | – | – | –
CC(=O)Nc1cc(C(=O)N[C@H]2CCC[C@@H]2COc2ccc(F)cc2)c(-n2nccn2)cn1 [Example 23, 2-acetamido-N-[(1S,2S)-2-[(4-fluorophenoxy)methyl]cyclopentyl]-5-(triazol-2-yl)pyridine-4-carboxamide] | 6.5 | 8.9 | 3.16 | > 63.1 | – | – | – | –
CC(=O)Nc1cc(C(=O)N[C@H]2CCC[C@@H]2COc2ccc(F)cc2)c(-c2ncccn2)cn1 [Example 24, 2-acetamido-N-[(1S,2S)-2-[(4-fluorophenoxy)methyl]cyclopentyl]-5-pyrimidin-2-yl-pyridine-4-carboxamide] | 6.6 | 8.3 | 1.26 | > 398 | – | – | – | –
CC(=O)Nc1cnc(-n2nccn2)c(C(=O)N[C@H]2CCC[C@@H]2COc2ccc(F)cc2)c1 [Example 25, 5-acetamido-N-[(1S,2S)-2-[(4-fluorophenoxy)methyl]cyclopentyl]-2-(triazol-2-yl)pyridine-3-carboxamide] | 5.5 | 8.5 | 3.98 | > 631 | – | – | – | –
CC(=O)Nc1ccc(-n2nccn2)c(C(=O)N[C@H]2CCC[C@@H]2COc2ccc(F)cn2)n1 [Example 26, 6-acetamido-N-[(1S,2S)-2-[(5-fluoro-2-pyridyl)oxymethyl]cyclopentyl]-3-(triazol-2-yl)pyridine-2-carboxamide] | <5.1 | 7.9 | 316 | > 1000 | – | – | – | –
O=C(c1cccc(F)c1-c1ncccn1)N1[C@@H]2CC[C@H]1[C@H](Nc1cnc(C(F)(F)F)cn1)C2 [JNJ-54717793] | – | – | – | – | attenuated | – | – | –
Cc1nc2ccc(NC(=O)Nc3ccnc4cccnc34)cc2o1 [SB-334867] | – | – | – | – | – | decreases | significantly reduce | decreases

From patent US12240825B2, “Oxexin 1 receptor antagonists” (Heptares Therapeutics Limited, priority 2019, dated 2025)
